Measurements from publication PMC2151519 (The Journal of General Physiology, 2006).

Tests used:
Assay in all cases: whole-cell patch clamp, outward current, CHO-K1
Assay type in all cases: cell-based
TRPM7 = TRPM7 (Mus musculus, UniProt Q923J1)
TRPM6 = TRPM6 (Homo sapiens, UniProt Q9BX84)
TRPM6/7 = TRPM6/7 (Homo sapiens; Mus musculus, UniProt Q923J1+Q9BX84)
Sequence of TRPM6/7 (Q9BX84 whole entry): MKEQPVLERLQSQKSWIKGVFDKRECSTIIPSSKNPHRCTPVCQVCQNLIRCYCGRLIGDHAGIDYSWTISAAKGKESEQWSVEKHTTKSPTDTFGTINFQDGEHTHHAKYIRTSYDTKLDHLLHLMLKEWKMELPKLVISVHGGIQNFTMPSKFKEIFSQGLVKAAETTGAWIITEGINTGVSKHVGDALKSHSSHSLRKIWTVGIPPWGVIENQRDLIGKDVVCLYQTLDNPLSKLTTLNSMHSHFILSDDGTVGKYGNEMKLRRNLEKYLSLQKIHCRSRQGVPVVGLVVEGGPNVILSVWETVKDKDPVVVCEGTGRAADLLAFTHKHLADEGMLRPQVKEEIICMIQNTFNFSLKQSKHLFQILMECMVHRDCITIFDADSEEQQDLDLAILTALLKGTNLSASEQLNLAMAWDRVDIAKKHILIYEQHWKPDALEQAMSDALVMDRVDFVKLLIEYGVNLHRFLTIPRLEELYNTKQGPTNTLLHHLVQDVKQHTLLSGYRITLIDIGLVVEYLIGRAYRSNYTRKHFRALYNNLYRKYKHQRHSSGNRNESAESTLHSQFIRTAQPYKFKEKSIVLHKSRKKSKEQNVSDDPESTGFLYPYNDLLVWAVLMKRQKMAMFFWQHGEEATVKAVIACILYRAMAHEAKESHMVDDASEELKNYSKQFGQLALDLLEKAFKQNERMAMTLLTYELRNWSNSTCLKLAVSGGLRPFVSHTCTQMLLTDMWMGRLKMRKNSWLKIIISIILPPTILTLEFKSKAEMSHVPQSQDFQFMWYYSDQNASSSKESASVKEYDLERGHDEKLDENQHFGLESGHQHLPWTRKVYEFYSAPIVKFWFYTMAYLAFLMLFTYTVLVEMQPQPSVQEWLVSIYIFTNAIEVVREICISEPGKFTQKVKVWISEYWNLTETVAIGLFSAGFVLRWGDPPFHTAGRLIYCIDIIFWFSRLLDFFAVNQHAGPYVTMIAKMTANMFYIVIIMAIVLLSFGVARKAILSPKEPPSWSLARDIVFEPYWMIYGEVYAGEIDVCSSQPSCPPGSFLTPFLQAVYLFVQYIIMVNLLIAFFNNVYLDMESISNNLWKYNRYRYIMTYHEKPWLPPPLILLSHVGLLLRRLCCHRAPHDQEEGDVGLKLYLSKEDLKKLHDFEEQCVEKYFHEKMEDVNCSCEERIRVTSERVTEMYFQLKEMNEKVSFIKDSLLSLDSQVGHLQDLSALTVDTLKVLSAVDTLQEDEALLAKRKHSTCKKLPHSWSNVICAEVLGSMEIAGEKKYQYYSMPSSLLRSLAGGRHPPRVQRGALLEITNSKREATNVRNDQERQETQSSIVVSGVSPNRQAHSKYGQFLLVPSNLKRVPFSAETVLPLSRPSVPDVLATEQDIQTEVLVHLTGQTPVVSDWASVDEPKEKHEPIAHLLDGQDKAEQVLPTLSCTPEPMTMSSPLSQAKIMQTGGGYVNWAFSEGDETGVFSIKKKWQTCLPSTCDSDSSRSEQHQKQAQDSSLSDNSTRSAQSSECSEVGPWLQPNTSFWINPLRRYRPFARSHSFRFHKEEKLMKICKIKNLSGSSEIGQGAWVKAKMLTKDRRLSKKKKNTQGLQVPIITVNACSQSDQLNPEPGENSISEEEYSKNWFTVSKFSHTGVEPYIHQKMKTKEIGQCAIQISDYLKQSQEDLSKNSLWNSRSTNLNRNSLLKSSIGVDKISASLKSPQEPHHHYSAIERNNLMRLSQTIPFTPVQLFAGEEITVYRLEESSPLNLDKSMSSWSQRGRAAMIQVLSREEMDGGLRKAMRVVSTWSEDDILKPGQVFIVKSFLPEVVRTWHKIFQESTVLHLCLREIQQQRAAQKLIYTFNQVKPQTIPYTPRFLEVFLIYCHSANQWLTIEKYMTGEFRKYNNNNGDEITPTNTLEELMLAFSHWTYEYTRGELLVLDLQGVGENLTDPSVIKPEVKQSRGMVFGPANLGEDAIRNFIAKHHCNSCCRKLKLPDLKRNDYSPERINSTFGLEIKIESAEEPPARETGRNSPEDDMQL
Sequence of TRPM6/7 (Q923J1 whole entry): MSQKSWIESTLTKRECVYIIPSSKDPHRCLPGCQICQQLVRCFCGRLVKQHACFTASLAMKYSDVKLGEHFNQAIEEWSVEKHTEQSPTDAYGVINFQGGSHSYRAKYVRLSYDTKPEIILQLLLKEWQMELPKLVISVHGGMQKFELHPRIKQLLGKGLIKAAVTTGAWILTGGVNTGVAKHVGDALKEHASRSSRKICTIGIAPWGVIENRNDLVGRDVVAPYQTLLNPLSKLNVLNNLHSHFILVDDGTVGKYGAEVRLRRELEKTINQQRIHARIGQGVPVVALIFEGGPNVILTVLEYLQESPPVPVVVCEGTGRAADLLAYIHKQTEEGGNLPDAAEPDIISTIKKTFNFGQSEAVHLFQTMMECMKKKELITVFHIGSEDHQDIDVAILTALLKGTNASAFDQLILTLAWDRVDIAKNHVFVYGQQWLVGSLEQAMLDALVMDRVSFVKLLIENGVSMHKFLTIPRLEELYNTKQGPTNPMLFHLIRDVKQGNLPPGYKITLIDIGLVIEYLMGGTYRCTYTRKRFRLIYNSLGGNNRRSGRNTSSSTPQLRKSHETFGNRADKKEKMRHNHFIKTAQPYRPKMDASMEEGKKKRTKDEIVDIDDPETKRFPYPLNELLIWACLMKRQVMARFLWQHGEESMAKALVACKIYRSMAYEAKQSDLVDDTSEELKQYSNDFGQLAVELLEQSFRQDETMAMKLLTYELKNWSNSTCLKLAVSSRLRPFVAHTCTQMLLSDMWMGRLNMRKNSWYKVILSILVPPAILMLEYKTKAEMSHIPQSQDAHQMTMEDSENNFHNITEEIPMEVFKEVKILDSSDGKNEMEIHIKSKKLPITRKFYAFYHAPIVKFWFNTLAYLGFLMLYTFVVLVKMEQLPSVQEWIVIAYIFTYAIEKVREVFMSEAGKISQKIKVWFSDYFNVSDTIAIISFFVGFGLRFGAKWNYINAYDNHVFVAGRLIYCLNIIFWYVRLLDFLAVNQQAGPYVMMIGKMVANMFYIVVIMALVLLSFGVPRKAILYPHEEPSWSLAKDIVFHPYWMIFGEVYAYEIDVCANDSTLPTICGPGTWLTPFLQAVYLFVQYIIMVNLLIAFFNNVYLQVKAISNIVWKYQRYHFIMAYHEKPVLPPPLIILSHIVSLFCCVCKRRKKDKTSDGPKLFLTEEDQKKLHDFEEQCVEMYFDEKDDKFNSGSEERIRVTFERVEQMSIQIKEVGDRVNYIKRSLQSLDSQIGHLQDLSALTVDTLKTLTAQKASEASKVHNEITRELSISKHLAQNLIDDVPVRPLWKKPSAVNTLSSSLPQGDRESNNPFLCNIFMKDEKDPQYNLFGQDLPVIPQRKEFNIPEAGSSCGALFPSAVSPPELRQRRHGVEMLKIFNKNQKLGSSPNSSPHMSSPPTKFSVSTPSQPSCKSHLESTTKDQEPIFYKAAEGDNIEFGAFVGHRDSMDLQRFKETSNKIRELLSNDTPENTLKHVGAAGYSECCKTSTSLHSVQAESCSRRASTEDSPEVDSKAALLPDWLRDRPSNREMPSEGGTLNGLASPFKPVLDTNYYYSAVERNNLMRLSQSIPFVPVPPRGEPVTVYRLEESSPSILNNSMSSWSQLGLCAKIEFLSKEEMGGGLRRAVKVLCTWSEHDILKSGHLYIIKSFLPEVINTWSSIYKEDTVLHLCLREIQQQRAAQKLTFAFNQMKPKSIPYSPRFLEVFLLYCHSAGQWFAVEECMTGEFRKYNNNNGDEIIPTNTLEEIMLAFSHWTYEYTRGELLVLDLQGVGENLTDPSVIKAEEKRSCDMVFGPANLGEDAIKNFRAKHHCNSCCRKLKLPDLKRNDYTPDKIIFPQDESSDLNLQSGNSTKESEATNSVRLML

Sequence of TRPM7 (Q923J1 whole entry): as above
Sequence of TRPM6 (Q9BX84 whole entry): as the sequence (Q9BX84 whole entry) above

## NCCOB(c1ccccc1)c1ccccc1 [2-APB]
TRPM7
  IC50: 178 ± 14 µM
TRPM6
  EC50: 205 ± 10 µM
TRPM6/7
  EC50: 1.6 ± 0.1 mM
